Inhibition data for one molecule are collected here from patent publication US20060281798A1, “Methods of using thiazolidinedithione derivatives” (QLT Inc., priority 2002, published 2006).

Common to all, as to type: cell-based
Assay [1] concerns PC3 cells, PTPN12 mouse embryonic fibroblasts (MEFs). Nature of the assay: Cell migration in a Boyden chamber. Conditions: PC-3, cell line of Table 2 not stated. From the text: A range of cell lines are used in this assay, particularly the prostate cancer cell line PC3 and PTPN12 mouse embryonic fibroblasts (MEFs). The role of PTPN12 in migration was established based on the observations of PTPN12 negative MEFs. Cell adhesion and migration are dynamic biological activities involving the assembly and disassembly of a large number of extracellular and intracellular molecules, for example, actin, which are regulated in turn by protein phosphorylation. […] Migration is reduced in PTPN12 knock-out MEFs. By extension, a PTPN12 inhibitor should reduce cell migration in a Boyden chamber. Therefore, as a readout for PTPN12 activity, the following assay is designed to analyze cell migration in Boyden chambers. […]
For tumour cell lines, stock cells (i.e. PC3 cells) are grown to 50-70% confluency in T175 flasks. […] Fluorescence of migrated cells is read in a Fluoroskan Ascent FL™ (or equivalent) with bottom reading at excitation/emission wavelength of 485/538 nm. Only those cells that have migrated through the pores of the FluoroBlok™ membrane will be read. […]
Data is expressed as fluorescence unit (FU) from the sum of middle 25 areas per 24-well or as percentage of migration inhibition by following formula: % of invasion inhibition=100−FU of compound treated cell invasion/FU of DMSO treated cell invasion times 100. […]

Another assay relates to PC3 Cells. Nature of the assay: Cell proliferation (3H-thymidine incorporation), PC3. Conditions: Homo sapiens, PC-3, 24 hours. An excerpt: (§1) This procedure (Jelinkova, R. B. et al., “Antiproliferative effect of a lectin- and anti-Thy-1.2 antibody-targeted HPMA copolymer-bound doxorubicin on primary and metastatic human colorectal carcinoma and on human colorectal carcinoma transfected with the mouse Thy-1.2 gene”, Bioconjug. Chem. (2000, September-October), Vol. 11, No. 5, pp. 664-73) is used to assess the effect compounds have on various cell lines with respect to proliferation. The rate of anchorage-independent growth of various tumor cells is quantified by measuring the amount of free isotopic thymidine that has been incorporated into the cells over a period of time. The effect of any compound to inhibit the proliferation of various tumor cells could be used as an indication of its ability to prevent disease progression in cancer.
(§2) Cultured tumour cells are harvested cells as per normal procedures: i.e. trypsinize, centrifuge and count cells. […]
(§3) After incubation, plates are observed under the microscope for obvious cell death, abnormal cell shape, crystal formation of the compound, etc. […] Finally, 100 μL of scintillation fluid is added to each well and the plates are counted in a Wallac 1450 Microbeta™ counter according to user manual instructions.
(§4) The amount of inhibition is determined by the following formula: % inhibition=100−[(AVG treatment−AVG positive control)/[…]]
In general terms: Uptake of a labelled nucleoside into DNA is a usual measure of proliferation.

The next assay has as its system H460 Cells. The assay can be described thus: Cell proliferation (3H-thymidine incorporation), H460. The note with it: Homo sapiens, NCI-H460, 24 hours.
Description: as §1, §2, §3, §4

Broadly, the inhibition is the drop in the measured response relative to a control, in per cent. A high value points to a response far below the control. `S=C1NC(=S)C(=Cc2ccc(-c3ccc(Br)cc3)o2)S1` [5-[5-(4-Bromophenyl)-furan-2-ylmethylene]-thiazolidine-2,4-dithione] yielded an inhibition at 25 µM in assay [1] of 65%. Further, the inhibition at 50 µM with PC3 Cells was 15%; in the assay with H460 Cells, 89%.
